Experimental data as given in patent US20260271925A1, “DYSREGULATION OF PLANKTONIC BACTERIAL METABOLISM” (Lixa Limited, priority 2023, published 2026).
≈ marks a conversion by molar mass, not a printed value.

Assays:
[1] = cited from earlier work
[2] = tested on: S. aureus MRSA 510; assay: Minimum inhibitory concentration of metal salts by broth microdilution in Trypticase Soya broth (Example 4); assay type: cell-based, Staphylococcus aureus
Protocol: Bacterial strains were maintained as suspensions in 20% (v/v) glycerol/Brain-Heart Infusion at −80° C. For use, a loop-full of ice was scraped from the stock and streaked for single colonies on Trypticase Soya agar containing 1.8% agar and incubated overnight at 37° C.
A standard inoculum was prepared from broth culture. One to three colonies from an overnight agar culture plate were transferred to 5 ml of broth media and incubated at 37° C. with shaking (200 rpm) until turbidity was greater than that of a 0.5 McFarland Standard (overnight). All assays were performed in Trypticase Soya broth.
(§1) The broth culture was diluted in broth to a turbidity equal to a 0.5 McFarland Standard using a spectrophotometer at a wavelength of 620 nm. The 0.5 McFarland Standard was further diluted 1:100 in broth to create the standard inoculum. 50 μl of this standard inoculum was dispensed into every well in the microtitre tray, except the negative controls, where 50 μl of broth was dispensed instead.
Next, a working concentration at two times the highest target concentration for every salt (in aqueous solution) was created in broth from stock solutions. 100 μl of this working concentration was pipetted into the first well, and 50 μl of broth media into all other wells. 50 μl of the first well was pipetted out and serially diluted across all wells in the row until the final concentration in the range achieved. 50 μl from the final well was removed and discarded. This produced a concentration range where each well was double the target concentration. All agents were performed in duplicate.
(§2) 96 well trays were incubated at 37° C. for 18±2 hours.

[3] = tested on: P. aeruginosa strain WACC91; assay: Resazurin reduction of planktonic cultures in M63 (glucose), D- versus L-Lactic acid (Example 3); assay type: cell-based, Pseudomonas aeruginosa
Protocol: . Viable cells reduce the blue resazurin dye to the pink, fluorescent resorufin form. Following incubation fluorescence was quantified by excitation wavelength of 540 nm and an emission wavelength of 590 nm using Enspire microplate reader.
P. aeruginosa strain WACC91 was maintained as a suspension in 20% (v/v) glycerol/Brain-Heart Infusion at −80° C. For use, a loop-full of ice was scraped from the stock and streaked for single colonies on LB media containing 1.8% agar and incubated overnight at 37° C. Isolated colonies were looped into 5 mL of LB broth and incubated at 37° C. with shaking until turbidity was greater than that of a 1.0 McFarland Standard (3-4 h).
The broth culture was diluted in M63 minimal media containing 0.2% (w/v) glucose as the sole carbon source to a turbidity equal to a 1.0 McFarland standard using a spectrophotometer at a wavelength of 595 nm. This culture was then diluted 1:100 in M63 (glucose) and 100 μL together with an additional 50 μL was transferred to each well of a 96 well microtitre tray and incubated overnight at 37° C., 5% CO2. D-Lactic acid, L-Lactic acid, or vehicle only (sterile H2O) was then applied by adding 50 μL of appropriate stock solutions diluted in M63 (glucose) and incubating for a further 24 hours at 37° C., 5% CO2. Culture metabolic activity was then determined using resazurin reduction as described above in Example 1.

[4] = tested on: S. pneumoniae D39; assay: Resazurin reduction for the evaluation of metabolic activity (Example 2); assay type: cell-based, Streptococcus pneumoniae; details: plus 10 mM D-Lactic acid
Protocol: (§3) Bacterial strains were maintained as suspensions in 20% (v/v) glycerol/Brain-Heart Infusion at −80° C.
(§4) Aerobic respiration was measured in the presence or absence of D-Lactic acid and the presence or absence of companion antibiotics either following incubation and visual recording of the MIC, or in a separate study. For evaluation after completion of MIC determination, the entire volume of the MIC well (100 μl) was mixed by pipetting up and down, then transferred to the equivalent well of a fluorescence-absorbance suitable 96-well plate. Alternatively, cultures were pipetted together as above and incubated overnight at 37° C. in the absence of any antimicrobial compounds. Culture supernatants were removed, adherent cells washed and then treated by the addition of 100 μL of fresh broth, 50 μL of broth containing 4×the desired concentration of antibiotic and 50 μL containing 4×the desired concentration of D-Lactic acid or vehicle only controls, followed by incubation at 37° C. for a further 18±2 hours. After incubation regimes were completed for both procedures, resazurin reduction was evaluated by adding 10 μl of a 0.02% resazurin solution to every well, and incubating the plates with gentle shaking (40 rpm) for a further 90 minutes at 37° C. 96-well plates and resazurin were protected from light as much as possible.
(§5) Following incubation, the 96-well trays were read on a fluorescence-absorbance spectrophotometer, using an excitation frequency of 565 nm and emission frequency of 590 nm. The value for each well was blanked by subtracting the value of the negative control. Every value was then converted to a ratio with respect to the mean value of the positive controls.

[5] = tested on: S. pneumoniae D39; assay: Minimum inhibitory concentration by broth microdilution (Example 2); assay type: cell-based, Streptococcus pneumoniae; details: for MIC + 1 mM D-Lactic acid: antibiotic + 1 mM D-Lactic acid; for MIC + 10 mM D-Lactic acid: antibiotic + 10 mM D-Lactic acid; for MIC: antibiotic alone
Protocol: (§6) Bacterial strains were maintained as suspensions in 20% (v/v) glycerol/Brain-Heart Infusion at −80° C. For use, a loop-full of ice was scraped from the stock and streaked for single colonies on rich media containing 1.8% agar (for Pseudomonas aeruginosa or Klebsiella pneumoniae, Luria-Bertani medium; for Staphylococcus aureus or Streptococcus pneumoniae, Trypticase Soy agar) and incubated overnight at 37° C.
(§7) A standard inoculum was prepared from broth culture. 1 to 3 colonies from an overnight agar culture plate were transferred to 5 ml of broth media and incubated at 37° C. with shaking (200 rpm) until turbidity was greater than that of a 0.5 McFarland Standard (overnight). The following broth media were used: Cation-adjusted Mueller-Hinton broth (caMHB—all strains); Roswell Park Memorial Institute medium (RPMI 1640, phenol red-free—S. aureus); Trypticase Soya Broth (TSB—S. aureus, S. pneumoniae); Todd Hewitt Broth (THB—S. pneumoniae), M63 minimal medium, supplemented with 0.2% glucose (M63—K. pneumoniae).
as §1
(§8) Next, a working concentration at two times the highest target concentration for every antimicrobial was created in broth from stock solutions. 100 μl of this working concentration was pipetted into the first well, and 50 μl of broth media into all other wells. 50 μl of the first well was pipetted out and serially diluted across all wells in the row until the final concentration in the range achieved. 50 μl from the final well was removed and discarded. This produced a concentration range where each well was double the target concentration. All agents were performed in duplicate.
as §2

[6] = tested on: S. aureus 29213 (MSSA); assay: as above; assay type: cell-based, Staphylococcus aureus; details: for MIC + 1 mM D-Lactic acid: antibiotic + 1 mM D-Lactic acid; for MIC + 10 mM D-Lactic acid: antibiotic + 10 mM D-Lactic acid
Protocol: as §3
(§9) A standard inoculum was prepared from broth culture.
as §1, §8, §2

[7] = tested on: P. aeruginosa WACC91; assay: as above; assay type: cell-based, Pseudomonas aeruginosa; details: for MIC + 1 mM D-Lactic acid: antibiotic + 1 mM D-Lactic acid; for MIC + 10 mM D-Lactic acid: antibiotic + 10 mM D-Lactic acid; for MIC: antibiotic alone
Protocol: as §6, §7, §1, §8, §2

[8] = tested on: S. aureus 510 (MRSA); assay: Resazurin reduction for the evaluation of metabolic activity (Example 2); assay type: cell-based, Staphylococcus aureus
Protocol: as §3, §4, §5

[9] = tested on: S. aureus 29213 (MSSA); assay: as above; assay type: cell-based, Staphylococcus aureus; details: plus 10 mM D-Lactic acid
Protocol: as §3, §4, §5

[10] = tested on: S. aureus 510 (MRSA); assay: Minimum inhibitory concentration by broth microdilution (Example 2); assay type: cell-based, Staphylococcus aureus; details: unit assumed; for MIC + 1 mM D-Lactic acid: antibiotic + 1 mM D-Lactic acid; for MIC + 10 mM D-Lactic acid: antibiotic + 10 mM D-Lactic acid; for MIC: antibiotic alone
Protocol: as §3, §9, §1, §8, §2

## O=C(O)C(O)c1ccccc1 (stereo not drawn) [2-hydroxy-2-phenylacetic acid]
[1]
  Water solubility*: 1.14 mol/L

## CCC(O)C(=O)O (stereo not drawn) [2-hydroxybutanoic acid]
[1]
  Water solubility*: 1.93 mol/L

## CCCCC(O)C(=O)O (stereo not drawn) [2-hydroxyhexanoic acid]
[1]
  Water solubility*: 0.27 mol/L

## CCCC(O)C(=O)O (stereo not drawn) [2-hydroxypentanoic acid]
[1]
  Water solubility*: 1.64 mol/L

## [Cu+2] [Cu^2+]
[2]; metal ion as D-Lactate salt
  MIC D-Lactate salt: 4 mM
[2]; metal ion as nitrate salt
  MIC (NO3)2 salt: 8 mM

## C[C@H](O)C(=O)O [L-Lactic acid]
[3]; Resazurin reduction in comparison to vehicle-only treatment
  breakpoint of metabolic rate (concentration range in which the change of activity is clearest): No comparable breakpoint is observed
[3]; resorufin fluorescence, same concentrations as D-Lactic acid
  change in metabolic activity: No change in metabolic activity

## CC1(C)S[C@@H]2[C@H](NC(=O)[C@H](N)c3ccc(O)cc3)C(=O)N2[C@H]1C(=O)O [amoxicillin]
[4]
  Relative metabolic activity, antibiotic plus D-Lactic acid versus antibiotic only: enhances metabolic activity suppression
[5]
  MIC + 1 mM D-Lactic acid: 0.25
  MIC + 10 mM D-Lactic acid: 0.25
  MIC: 0.5
[6]
  MIC + 1 mM D-Lactic acid: <1.0
  MIC + 10 mM D-Lactic acid: 2.0

## CC1(C)S[C@@H]2[C@H](NC(=O)[C@H](N)c3ccccc3)C(=O)N2[C@H]1C(=O)O [ampicillin]
[4]
  Relative metabolic activity, antibiotic plus D-Lactic acid versus antibiotic only: enhances metabolic activity suppression
[5]
  MIC + 1 mM D-Lactic acid: 4.0
  MIC + 10 mM D-Lactic acid: 4.0
  MIC: >16.0

## C[C@H]1[C@H](NC(=O)/C(=N\OC(C)(C)C(=O)O)c2csc(N)n2)C(=O)N1S(=O)(=O)O [aztreonam]
[7]
  MIC + 1 mM D-Lactic acid: 4.0
  MIC + 10 mM D-Lactic acid: 4.0
  MIC: 8.0

## CO/N=C(\C(=O)N[C@@H]1C(=O)N2C(C(=O)O)=C(CSc3nc(=O)c(=O)[nH]n3C)CS[C@H]12)c1csc(N)n1 [ceftriaxone]
[4]
  Relative metabolic activity, antibiotic plus D-Lactic acid versus antibiotic only: enhances metabolic activity suppression
[8]; plus 0.1 mM D-Lactic acid
  Relative metabolic activity, antibiotic plus D-Lactic acid versus antibiotic only: enhances metabolic activity suppression
[9]
  Relative metabolic activity, antibiotic plus D-Lactic acid versus antibiotic only: enhances metabolic activity suppression
[10]
  MIC + 1 mM D-Lactic acid: 8 µg/mL
  MIC + 10 mM D-Lactic acid: 8 µg/mL
  MIC: 16 µg/mL (≈ 28.9 µM)
[6]
  MIC + 1 mM D-Lactic acid: 4.0
  MIC + 10 mM D-Lactic acid: 4.0

## C[C@@H](O)[C@H]1C(=O)N2C(C(=O)O)=C(S[C@@H]3CN[C@H](C(=O)N(C)C)C3)[C@H](C)[C@H]12 [meropenem]
[7]
  MIC + 1 mM D-Lactic acid: <0.5
  MIC + 10 mM D-Lactic acid: <0.5
  MIC: 1.0
[8]; plus 10 mM D-Lactic acid
  Relative metabolic activity, antibiotic plus D-Lactic acid versus antibiotic only: enhances metabolic activity suppression
[9]
  Relative metabolic activity, antibiotic plus D-Lactic acid versus antibiotic only: enhances metabolic activity suppression
[5]
  MIC + 1 mM D-Lactic acid: 0.25
  MIC + 10 mM D-Lactic acid: 0.5
  MIC: 0.5
[10]
  MIC + 1 mM D-Lactic acid: 2 µg/mL
  MIC + 10 mM D-Lactic acid: 2 µg/mL
  MIC: > 4 µg/mL
[6]
  MIC + 1 mM D-Lactic acid: 0.5
  MIC + 10 mM D-Lactic acid: 0.5

## COc1cccc(OC)c1C(=O)N[C@@H]1C(=O)N2[C@@H]1SC(C)(C)[C@@H]2C(=O)O [methicillin]
[8]; plus 10 mM D-Lactic acid
  Relative metabolic activity, antibiotic plus D-Lactic acid versus antibiotic only: enhances metabolic activity suppression
[9]
  Relative metabolic activity, antibiotic plus D-Lactic acid versus antibiotic only: enhances metabolic activity suppression
[10]
  MIC + 1 mM D-Lactic acid: 2 µg/mL
  MIC + 10 mM D-Lactic acid: 2 µg/mL
  MIC: > 16 µg/mL
[6]
  MIC + 1 mM D-Lactic acid: 0.5
  MIC + 10 mM D-Lactic acid: 0.5

## CN(C)[C@@H]1C(O)=C(C(N)=O)C(=O)[C@@]2(O)C(O)=C3C(=O)c4c(O)cccc4[C@@](C)(O)[C@H]3C[C@@H]12 [tetracycline]
[10]
  MIC + 1 mM D-Lactic acid: < 0.5 µg/mL
  MIC + 10 mM D-Lactic acid: < 0.5 µg/mL
  MIC: 1 µg/mL (≈ 2.25 µM)

## CN[C@H](CC(C)C)C(=O)N[C@H]1C(=O)N[C@@H](CC(N)=O)C(=O)N[C@H]2C(=O)N[C@H]3C(=O)N[C@H](C(=O)N[C@H](C(=O)O)c4cc(O)cc(O)c4-c4cc3ccc4O)[C@H](O)c3ccc(c(Cl)c3)Oc3cc2cc(c3O[C@@H]2O[C@H](CO)[C@@H](O)[C@H](O)[C@H]2O[C@H]2C[C@](C)(N)[C@H](O)[C@H](C)O2)Oc2ccc(cc2Cl)[C@H]1O [vancomycin]
[4]
  Relative metabolic activity, antibiotic plus D-Lactic acid versus antibiotic only: enhances metabolic activity suppression
[8]; plus 1.0 mM D-Lactic acid
  Relative metabolic activity, antibiotic plus D-Lactic acid versus antibiotic only: enhances metabolic activity suppression
[9]
  Relative metabolic activity, antibiotic plus D-Lactic acid versus antibiotic only: enhances metabolic activity suppression
[10]
  MIC + 1 mM D-Lactic acid: 2 µg/mL
  MIC + 10 mM D-Lactic acid: 2 µg/mL
  MIC: 8 µg/mL (≈ 5.52 µM)
[6]
  MIC + 1 mM D-Lactic acid: 4.0
  MIC + 10 mM D-Lactic acid: 2.0
